Data published in patent publication US8080659B2, “CXCR4 antagonists including diazine and triazine structures for the treatment of medical disorders” (Emory University, priority 2006, dated 2011).

Assays:
CXCR4 [1] = target: T1, CXCR4 (Homo sapiens, UniProt P61073); assay: competition assay using biotin-labeled TN14003 on tumor cells; format: binding; parameters: endogenous in cells; probably MDA-MB-231
Text: In a separate embodiment, a process for screening potential drug candidates is provided. The process includes providing a labeled peptide-based CXCR4 antagonist that has a detectable signal when bound to a CXCR4 receptor; contacting a CXCR4 receptor with at least one test molecule at a known concentration to form a test sample; contacting the test sample with the peptide-based antagonist; separately, contacting the peptide-based antagonist to a sample not including any test molecule to form a control sample; and comparing the signal from the test sample to the signal from the control sample. In a specific sub-embodiment, the peptide-based antagonist is derived from TN14003 (described in PCT Publication No. WO 04/087068 to Emory University). In a further subembodiment, the antagonist is labeled with a biotin molecule and the signal is elicited when the biotin-labeled antagonist is contacted with a streptavadin-conjugated signal molecule.
The signal elicited by binding of the CXCR4 antagonist and the receptor can be a fluorescent signal. […]
The peptide-based antagonist is typically a molecule with high affinity for the receptor. […] In this embodiment, the test compound is incubated with the receptor at varying concentrations and the signal elicited after binding of the labeled antagonist is measured and compared to control, as well as to each other. […]

CXCR4 [2] = target: T1, CXCR4; assay: SDF-1-stimulated Akt phosphorylation in MDA-MB-231 cells (western blot); format: cell-based; parameters: endogenous in cells; host or cells: MDA-MB-231; settings: for concentration blocking Akt activation: 100 ng/ml SDF-1, 30 minutes; for block of SDF-1-stimulated phosphorylation of Akt: MDA-MB-231 cells, 100 ng/ml SDF-1, 30 min, dose-dependent
Description: FIG. 2 is an image of a western blot showing phosphorylation of Akt. Incubating MDA-MB-231 cells with 100 ng/ml of SDF-1 for 30 min stimulated phosphorylation of Akt. This activation was blocked with TN14003 or AMD3100 in a dose-dependent manner.
CXCR4/SDF-1 interaction activates PI3K/Akt and Ras/Raf/MEK/Erk pathways in a Gαi protein (PTX-sensitive)-dependent manner. Experiments were conducted to determine the effect of blocking CXCR4/SDF-1 interaction by either TN14003 or AMD3100 at different concentrations (0, 0.01, 0.1, 1, 10, 100, 1000 nM) on phosphorylations of Akt and Erk1/2 signaling. Incubating cells with 100 ng/ml of SDF-1 for 30 minutes activated Akt. […] However, the increase in Erk1/2 phosphorylation by SDF-1 was not significant as the increase in Akt phosphorylation.
(§1) WZZL811S was tested in a matrigel invasion assay to determine whether it can inhibit CXCR4/SDF-1-mediated invasion.

CXCR4 [3] = assay: CXCR4 protein levels after treatment of cells; format: cell-based, human
[4] = clinical trials; cited from earlier work
CXCR4 [5] = target: T1, CXCR4; assay: SDF-1-stimulated Erk1/2 phosphorylation; format: cell-based; parameters: endogenous in cells; host or cells: MDA-MB-231; settings: data not shown
Description: CXCR4/SDF-1 interaction activates PI3K/Akt and Ras/Raf/MEK/Erk pathways in a Gαi protein (PTX-sensitive)-dependent manner. Experiments were conducted to determine the effect of blocking CXCR4/SDF-1 interaction by either TN14003 or AMD3100 at different concentrations (0, 0.01, 0.1, 1, 10, 100, 1000 nM) on phosphorylations of Akt and Erk1/2 signaling.

[6] = tested on: hypoxia-responsive element (HRE) of VEGF promoter; assay: HRE-luciferase reporter of VEGF promoter activity in HRE-Luc MB-231 cells; format: cell-based, human
Text: To determine whether lowering CXCR4 levels might affect VEGF transcription compared to HIF-1α the hypoxia-reporting luciferase/LacZ plasmid from Dr. Van Meir's laboratory was used as a reporter system to detect hypoxia-responsive element (HRE) of VEGF promoter activity (Post, D. E. and Van Meir, E. G. (2001) Gene Ther 8: 1801-1807). The sequence of HIF-1α siRNA was 5′-UUCAAGUUGGAAUUGGUAGdTdT-3′ (SEQ. ID No. 3). Pooled cell clones were created with MDA-MB-231 cells stably transfected with this plasmid (called HRE-Luc MB-231). Unexpectedly, HRE activity in normoxia was moderately high in MDA-MB-231 cells that have high CXCR4 levels in normoxia (FIG. 6, left), which was not observed in other cell lines with low CXCR4 and HIF-1 levels (LN229, U87, 9L, and MDA-MB-435). This moderately high HRE activity in MDA-MB-231 cells was suppressed by CXCR4 siRNA or HIF-1α siRNA. […] As expected, the HRE activity increased 2.5-fold by hypoxia treatment (1% oxygen and 5% CO2 in nitrogen). This elevated HRE activity was again suppressed by siRNA for CXCR4 or HIF-1α (FIG. 6, right).

MT-4 cells = settings: cited from earlier work
686LN cells = assay: Head & Neck cancer metastasis model, 686LN cells i.v., FDG-PET; format: in vivo, mice; settings: 20 mg/mouse/twice weekly, thirty days
Description: The metastatic 686LN cells were injected intravenously through the tail vein to generate experimental animal models for Head & Neck cancer metastasis, modulated via CXCR4. […] These 3-D projection images show lung metastases well (bone mets and liver mets were apparent in axial section images of mice in control groups, data not shown).

HIV = settings: MT-4 cells; read-out: concentration required for 50% protection of HIV-induced cytopathogenicity; cited from earlier work
MDA-MB-231 cells = assay: matrigel invasion assay, CXCR4/SDF-1-mediated invasion; format: cell-based, human; settings: 2 nM
Description: Lowering CXCR4 mRNA levels by siRNAs inhibited CXCR4/SDF-1-mediated invasion as measured by a matrigel invasion assay. The CXCR4 ligand, SDF-1 (400 ng/ml) was added to the lower chamber to attract CXCR4-positive breast cancer cells to migrate through the matrigel. The invasion of MDA-MB-231 cells transfected with siRNA1 decreased to 39±4% of the control cells, 51±8% with siRNA2, and only 16±6% with both siRNA1+2 (FIG. 3A).
as §1

[7] = tested on: human umbilical vein endothelial cells (HUVECs); assay: endothelial capillary tube formation assay; format: cell-based; settings: 100 nM; SDF-1 100 ng/ml; 18 hours
Description: The anti-angiogenic effect of test compounds was measured by analyzing endothelial cell growth and tube formation. The angiogenic effect of SDF-1 (100 ng/ml) on capillary formation by human umbilical vein endothelial cells (HUVECs) was examined in vitro using Matrigel-coated 24-well plates precoated with Matrigel and incubated for 18 hours. The angiogenic effect of SDF-1 was inhibited by either 100 nM TN14003 (peptide-based CXCR4 antagonist) or WZZL811S treatment (FIG. 14a, graph FIG. 14b).

T1 sequence (P61073 whole entry): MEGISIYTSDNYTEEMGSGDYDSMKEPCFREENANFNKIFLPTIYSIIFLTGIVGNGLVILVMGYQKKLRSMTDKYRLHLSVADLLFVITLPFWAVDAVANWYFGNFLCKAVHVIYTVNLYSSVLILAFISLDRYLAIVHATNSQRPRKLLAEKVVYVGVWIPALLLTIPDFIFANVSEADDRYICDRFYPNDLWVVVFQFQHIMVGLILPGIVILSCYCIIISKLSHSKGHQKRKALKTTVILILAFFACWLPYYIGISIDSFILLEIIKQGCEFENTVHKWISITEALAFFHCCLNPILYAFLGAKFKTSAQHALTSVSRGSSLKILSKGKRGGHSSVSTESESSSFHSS

Compound | concentration needed to compete against biotin-labeled TN14003 (CXCR4 [1]) | concentration blocking Akt activation (CXCR4 [2]) | block of SDF-1-stimulated phosphorylation of Akt (CXCR4 [2]) | effect on CXCR4 protein levels (CXCR4 [3]) | side effect in clinical study [4] | concentration attenuating Erk1/2 phosphorylation (CXCR4 [5]) | HRE activity ([6]; hypoxia (1% oxygen)) | HRE activity ([6]; normoxia) | concentration leading to 50% toxicity (MT-4 cells) | metastasis to organs (686LN cells) | EC50 (HIV) | block of CXCR4/SDF-1 mediated invasion (MDA-MB-231 cells) | angiogenic effect of SDF-1 on capillary tube formation [7]
C1=CC(CN2CCCNCCNCCCNCC2)CC=C1CN1CCCNCCNCCCNCC1 (centres unmarked) [AMD3100] | 10 µM | a few nano molar | blocked | did not affect | cardiac-related side effect | 100 nM | – | – | – | – | – | – | –
HIF-1α siRNA: HIF-1α siRNA, 5′-UUCAAGUUGGAAUUGGUAGdTdT-3′ (SEQ. ID No. 3) (guide UUCAAGUUGGAAUUGGUAGNN; further chemistry not given here) | – | – | – | – | – | – | suppressed | suppressed | – | – | – | – | –
TN14003 | – | sub-nano molar | blocked | did not affect | – | sub-nano molar | – | – | 410 µM | failed to metastasize to any organs | 0.6 nM | blocked | inhibited
